This is an account of results in patent US8217035B2, “Pyrimidine derivatives used as PI-3-kinase inhibitors” (Novartis AG, priority 2006, dated 2012).

Assay [1] deals with A2780 ovarian cancer cells. Put plainly: Cellular proliferation in A2780 cells, Cell Titer Glo (Biological Method 4). To be noted: Homo sapiens; ovarian cancer cell line A2780, Biological Method 4. The class given is cell-based. The procedure: In addition, many of the compounds of Table 1 were tested to determine their inhibitory activity in a cellular proliferation assay according to Biological Method 4.
The ability of the compounds of the invention to inhibit cellular proliferation were determined by using Cell Titer Glo, a commercially available assay from Promega Corporation. A2780 ovarian cancer cells were seeded in TC treated 96-well plates at a density of 1,000 per well in DMEM, 10% FBS, 1% Sodium Pyruvate, and 1% Penicillin Streptomycin for a minimum of 2 hrs prior to addition of compound. For each concentration of test compound, 2 μl (500×) aliquots of compound or 100% DMSO diluted in 500 μl of culture medium for 2× concentration then diluted 1× on the Cells. Cells were incubated for 72 hrs at 37° C., 5% CO2. After the 72 hour incubation, Cell Titer Glo reagent is added to determine number of viable cells remaining after exposure to the compound, and the EC50 value was calculated. The assay was performed according to the manufacturer's instruction (Promega Corporation, Madison, Wis. USA). Each experimental condition was performed in duplicate.
(Cellular ATP, detected with luciferase, serves as a proxy for viable cell number.)

For the next assay, the target named is PI3 kinase alpha (Homo sapiens, UniProt P42336). Nature of the assay: PI3K ATP depletion assay (Biological Method 1, Assay 3; KinaseGlo luminescence). It counts as biochemical. To be noted: ATP depletion assay, Biological Method 1; read-out: PI3 Kinase Alpha, IC50. The protocol:
The PI3 kinase alpha IC50 values shown in Table 1 were determined according to the ATP depletion assay as disclosed herein in Biological Method 1.
Assay 3: ATP Depletion Assay
Compounds to be tested are dissolved in DMSO and directly distributed into a black 384-well plate at 1.25 μL per well. To start the reaction, 25 μL of 10 nM PI3 kinase and 5 μg/mL 1-alpha-phosphatidylinositol (PI) are added into each well followed by 25 μL of 2 μM ATP. The reaction is performed until approx 50% of the ATP is depleted, and then stopped by the addition of 25 μL of KinaseGlo solution purchased from Promega. The stopped reaction is incubated for 5 minutes and the remaining ATP is then detected via luminescence.

PI3 kinase alpha, sequence (P42336 whole entry): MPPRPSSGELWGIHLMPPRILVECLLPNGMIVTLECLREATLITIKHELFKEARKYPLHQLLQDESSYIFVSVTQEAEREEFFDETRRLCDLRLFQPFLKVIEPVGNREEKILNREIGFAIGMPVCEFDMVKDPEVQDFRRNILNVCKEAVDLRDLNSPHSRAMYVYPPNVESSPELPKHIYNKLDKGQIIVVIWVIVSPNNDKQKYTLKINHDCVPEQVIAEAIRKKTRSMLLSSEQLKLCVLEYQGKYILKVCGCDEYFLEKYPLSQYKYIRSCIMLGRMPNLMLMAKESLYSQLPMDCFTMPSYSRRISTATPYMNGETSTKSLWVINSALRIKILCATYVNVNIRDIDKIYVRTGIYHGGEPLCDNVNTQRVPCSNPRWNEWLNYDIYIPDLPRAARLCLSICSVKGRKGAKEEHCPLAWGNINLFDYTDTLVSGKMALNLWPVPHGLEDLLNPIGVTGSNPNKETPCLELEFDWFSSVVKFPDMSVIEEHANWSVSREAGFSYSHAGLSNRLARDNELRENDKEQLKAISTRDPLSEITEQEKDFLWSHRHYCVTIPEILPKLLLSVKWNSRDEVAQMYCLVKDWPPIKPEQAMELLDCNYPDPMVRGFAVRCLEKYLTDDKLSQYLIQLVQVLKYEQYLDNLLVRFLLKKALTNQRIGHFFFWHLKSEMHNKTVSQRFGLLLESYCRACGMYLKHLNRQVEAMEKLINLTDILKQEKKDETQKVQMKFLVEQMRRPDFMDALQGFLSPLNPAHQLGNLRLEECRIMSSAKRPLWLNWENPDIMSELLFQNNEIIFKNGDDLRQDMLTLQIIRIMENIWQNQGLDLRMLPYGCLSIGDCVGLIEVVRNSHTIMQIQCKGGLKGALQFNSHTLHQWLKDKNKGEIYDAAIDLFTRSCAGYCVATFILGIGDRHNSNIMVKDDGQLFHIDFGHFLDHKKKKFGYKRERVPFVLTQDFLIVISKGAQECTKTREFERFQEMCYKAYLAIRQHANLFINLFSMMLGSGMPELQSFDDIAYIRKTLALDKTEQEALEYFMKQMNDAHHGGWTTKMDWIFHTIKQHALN
PI3 kinase alpha, sequence (P27986 whole entry partner): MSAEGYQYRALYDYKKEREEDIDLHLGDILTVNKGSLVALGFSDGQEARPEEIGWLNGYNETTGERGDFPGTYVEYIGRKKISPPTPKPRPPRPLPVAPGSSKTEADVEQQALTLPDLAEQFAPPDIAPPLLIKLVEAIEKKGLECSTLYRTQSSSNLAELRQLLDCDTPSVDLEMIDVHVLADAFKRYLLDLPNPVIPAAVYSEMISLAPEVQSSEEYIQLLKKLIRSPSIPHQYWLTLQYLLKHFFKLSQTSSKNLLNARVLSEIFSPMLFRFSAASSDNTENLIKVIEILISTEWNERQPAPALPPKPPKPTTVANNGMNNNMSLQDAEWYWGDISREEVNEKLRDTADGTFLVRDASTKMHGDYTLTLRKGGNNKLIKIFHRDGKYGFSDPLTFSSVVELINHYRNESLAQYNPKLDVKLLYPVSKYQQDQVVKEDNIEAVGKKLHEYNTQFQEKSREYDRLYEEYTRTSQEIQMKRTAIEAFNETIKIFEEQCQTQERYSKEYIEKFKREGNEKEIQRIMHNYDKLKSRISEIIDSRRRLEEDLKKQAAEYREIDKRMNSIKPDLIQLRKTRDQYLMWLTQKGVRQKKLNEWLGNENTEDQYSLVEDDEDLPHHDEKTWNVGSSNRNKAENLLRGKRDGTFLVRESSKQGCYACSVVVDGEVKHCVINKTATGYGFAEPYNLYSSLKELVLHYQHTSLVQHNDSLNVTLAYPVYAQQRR

As usually defined, the EC50 is the concentration needed to bring the measured effect to its halfway point. Broadly, the IC50 is the concentration that gives 50% inhibition. In assay [1], `Nc1ccc(-c2cc(-c3ccncc3)nc(N3CCOCC3)n2)cn1` [Compound 246] displayed an EC50 below 10 µM. Moreover, the IC50 at PI3 kinase alpha is below 1 µM.

With `Cn1cc(-c2cc(-c3ccc(N)nc3)nc(N3CCOCC3)n2)cn1` [Compound 247], the EC50 in assay [1] is below 10 µM. Besides, at PI3 kinase alpha, the IC50 was below 1 µM.

On to `Nc1ccc(-c2cc(-c3cn[nH]c3)nc(N3CCOCC3)n2)cn1` [Compound 248], for which the EC50 in assay [1] was below 10 µM. Besides, the IC50 on PI3 kinase alpha was below 1 µM.

In assay [1], `CS(=O)(=O)Nc1cccc(-c2cc(-c3ccc(N)nc3)nc(N3CCOCC3)n2)c1` [Compound 249] gave an EC50 below 10 µM. For the same molecule, the IC50 on PI3 kinase alpha is below 1 µM.

With `CC(=O)Nc1cccc(-c2cc(-c3ccc(N)nc3)nc(N3CCOCC3)n2)c1` [Compound 250], the EC50 in assay [1] was below 10 µM. The IC50 at PI3 kinase alpha was below 1 µM.

In assay [1], `NC(=O)c1cccc(-c2cc(-c3ccc(N)nc3)nc(N3CCOCC3)n2)c1` [Compound 251] registered an EC50 below 10 µM. Moreover, the IC50 at PI3 kinase alpha was below 1 µM.

`CC(=O)c1cccc(-c2cc(-c3ccc(N)nc3)nc(N3CCOCC3)n2)c1` [Compound 252]: the EC50 in assay [1] is below 10 µM. Moreover, the IC50 on PI3 kinase alpha is below 1 µM.

In turn, `CC(=O)Nc1ccccc1-c1cc(-c2ccc(N)nc2)nc(N2CCOCC2)n1` [Compound 253] came in with an EC50 in assay [1] below 10 µM. Also, at PI3 kinase alpha, the IC50 is below 1 µM.

Consider `NC(=O)c1ccccc1-c1cc(-c2ccc(N)nc2)nc(N2CCOCC2)n1` [Compound 254], for which the EC50 in assay [1] was below 25 µM. Further, the IC50 at PI3 kinase alpha is below 1 µM.

Molecule `CC(=O)c1ccccc1-c1cc(-c2ccc(N)nc2)nc(N2CCOCC2)n1` [Compound 255] gave a concentration for a half-maximal effect (EC50) in assay [1] below 25 µM. Also, the concentration for half-maximal inhibition (IC50) on PI3 kinase alpha is below 1 µM.

Turning to `Nc1ncc(-c2nc(N3CCOCC3)ncc2N)cn1` [Compound 258], the EC50 in assay [1] is below 25 µM. The IC50 at PI3 kinase alpha is below 1 µM.

For the molecule `Nc1ccc(-c2nc(N3CCOCC3)ncc2N)cn1` [Compound 259], the EC50 in assay [1] is below 25 µM. For the same molecule, at PI3 kinase alpha, the IC50 is below 10 µM.

As to `CS(=O)(=O)Nc1ncccc1-c1cc(-c2cnc(N)nc2N)nc(N2CCOCC2)n1` [Compound 260], the half-maximal effective concentration (EC50) in assay [1] is below 10 µM. For the same molecule, the IC50 at PI3 kinase alpha is below 1 µM.

Molecule `CC(=O)N1CCC(Oc2ccc(Nc3cc(-c4cnc(N)nc4N)nc(N4CCOCC4)n3)cn2)CC1` [Compound 261] displayed an EC50 in assay [1] below 10 µM. Also, on PI3 kinase alpha, the IC50 was below 1 µM.

As to `CC(=O)N1CCC(Oc2ccc(Nc3cc(-c4cnc(N)cc4C(F)(F)F)nc(N4CCOCC4)n3)cn2)CC1` [Compound 262], the EC50 in assay [1] was below 10 µM. Further, the IC50 at PI3 kinase alpha was below 1 µM.

Turning to `Nc1cc(C(F)(F)F)c(-c2cc(-c3cncc(CN4CCCCC4)c3)nc(N3CCOCC3)n2)cn1` [Compound 263], the EC50 in assay [1] is below 10 µM. Moreover, the IC50 on PI3 kinase alpha is below 1 µM.

In assay [1], `Nc1cc(C(F)(F)F)c(-c2cc(-c3cncc(CN4CCCC4)c3)nc(N3CCOCC3)n2)cn1` [Compound 264] came in with an EC50 below 10 µM. Further, the IC50 at PI3 kinase alpha is below 1 µM.

In assay [1], `Nc1cc(C(F)(F)F)c(-c2cc(-c3cncc(S(=O)(=O)CCO)c3)nc(N3CCOCC3)n2)cn1` [Compound 265] yielded an EC50 below 10 µM. The IC50 at PI3 kinase alpha was below 1 µM.

Take `CS(=O)(=O)c1cncc(-c2cc(-c3cnc(N)cc3C(F)(F)F)nc(N3CCOCC3)n2)c1` [Compound 266]: in assay [1], the EC50 is below 10 µM. The IC50 at PI3 kinase alpha was below 1 µM.

In assay [1], `Nc1cc(C(F)(F)F)c(-c2cc(Nc3ccc(OC4CCOCC4)nc3)nc(N3CCOCC3)n2)cn1` [Compound 267] had an EC50 below 10 µM. Also, on PI3 kinase alpha, the IC50 is below 1 µM.

Take `Nc1cc(C(F)(F)F)c(-c2cc(Nc3ccc(OC4CCOC4)nc3)nc(N3CCOCC3)n2)cn1` (stereo not shown) [Compound 268]: in assay [1], the EC50 was below 10 µM. For the same molecule, at PI3 kinase alpha, the IC50 was below 1 µM.

Regarding `CN(C)CCOc1ccc(Nc2cc(-c3cnc(N)cc3C(F)(F)F)nc(N3CCOCC3)n2)cn1` [Compound 269], the EC50 in assay [1] was below 10 µM. The IC50 on PI3 kinase alpha is below 1 µM.

With `Cc1c(-c2cnc(N)nc2)nc(N2CCOCC2)nc1-c1cncc(OCCN(C)C)c1` [Compound 270], the EC50 in assay [1] is below 25 µM. The IC50 at PI3 kinase alpha was below 1 µM.
